Tested on: KRAS patient-derived spheroids with HUVEC/MSC, viability
Assay: Anticancer human tumor 519858-162-T-J1-PDC patient-derived colon adenocarcinoma cell line growth inhibition [KRAS2]
Conditions: for IC50: curve of first compound; for viability, T/C: stronger effect = lower value
Text: Multicellular complex tumor spheroid response to RAS pathway inhibitors in combination with a targeted agents in patient-derived cell lines with oncogenic KRAS variants from multiple cancer types
A high-throughput screen of multi-cell type tumor spheroids was designed to identify active combinations of targeted small molecules and KRAS pathway inhibitors. Complex spheroids include a stromal component modeled by human endothelial cells (HUVEC) and fibroblasts modeled by human mesenchymal stem cells (MSCs). The concentration ranges selected for each drug and investigational agent were based upon clinically achievable concentrations if the clinical Cmax of the agent was known.
Compounds. The drugs and investigational agents: BI-3406 (NSC825286), BAY-293 (NSC824723), batoprotafib (TNO155; NSC825523), sotorasib (AMG 510; NSC818433), MRTX1257 (NSC819558), elimusertib (BAY 1895344; NSC800525), molibresib (GSK525762; NSC774829), temuterkib (LY3214996; NSC803410), venetoclax (NSC766270), alisertib (NSC759677), olaparib (NSC753686), talazoparib (NSC767125), erdafitinib (NSC781556), ipatasertib (NSC767898), cabozantinib (NSC761068), nintedanib (NSC756659), abemaciclib (NSC768073), docetaxel (NSC628503), trametinib (NSC758246), and sapanisertib (NSC764658) were obtained from the National Cancer Institute (NCI) Developmental Therapeutics Program Chemical Repository. The FDA-approved anticancer drug set is available from the Developmental Therapeutics Program. […] The stock solutions were prepared in dimethyl sulfoxide (DMSO, Sigma-Aldrich, St. Louis, MO, cat. D2650) at 800-fold the tested concentration and stored at -70 degrees C prior to their use. All drugs and investigational agents were tested over a range starting from a high concentration at or near the clinical Cmax and decreasing in half-log increments. If the clinical Cmax for an agent had not been determined, the highest concentration tested was 10 microM.
Cell Culture. All cells were maintained in an incubator at 37 degrees C and 5% CO2 with 95% humidity. The PDC lines were cultured according to standard operating procedures established by the NCI PDMR (https://pdmr.cancer.gov/sops/default.htm). Briefly, all PDCs were thawed and cultured in Matrigel-coated flasks prepared with a working solution of 1X Ham's F-12 nutrient mix, without supplementation (Invitrogen, Waltham, MA, cat. 11765054), 100 U/mL penicillin-streptomycin (Invitrogen, cat. 15140122), and 2.5% Matrigel (Corning Inc., Corning, NY, cat. 354248) for the first three passages. All PDCs were cultured in complete DMEM/F-12 media containing advanced DMEM/F-12 (Invitrogen, cat. 12634028), 4.9% defined fetal bovine serum, heat inactivated (HyClone Laboratories Inc., Logan, UT, cat. SH30070.03HI), 389 ng/mL hydrocortisone (Sigma-Aldrich, cat. H4001), 9.7 ng/mL human EGF recombinant protein (Invitrogen, cat. PHG0313), 23.4 microg/mL adenine (Sigma-Aldrich, cat. A2786), 97.3 U/mL penicillin-streptomycin (Invitrogen, cat. 15140122), 1.9 mM L-glutamine (Invitrogen, cat. 25030081), and 9.7 microM Y-27632 dihydrochloride (Tocris Bioscience, Bristol, United Kingdom, cat. 1254). The PDCs were cultured in complete DMEM/F12 media without 9.7 microM Y-27632 dihydrochloride for at least two passages prior to the screen. The established cell line HOP-62 was cultured in RPMI 1640 medium, HEPES (Invitrogen, cat. 22400105) with 10% defined fetal bovine serum (HyClone Laboratories Inc., cat. SH30070.03) and 2 mM L-glutamine (Invitrogen, cat. 25030081). The pooled donor HUVEC were cultured in endothelial cell growth medium 2 (PromoCell, Heidelberg, Germany, cat. C-22011) and the hMSC were cultured in mesenchymal stem cell growth medium 2 (PromoCell, cat. C-28009). For all experiments, HUVEC and hMSC were used at passages </=5, while the malignant cell lines were used at passages </=15. […]

[1] = second compound 0.0316 µM, first compound 0.0316 µM
[2] = second compound 0.0316 µM, first compound 0.1 µM
[3] = second compound 0.0316 µM, first compound 0.316 µM
[4] = second compound 0.0316 µM, first compound 1 µM
[5] = second compound 0.0316 µM, first compound 3.16 µM
[6] = second compound 0.1 µM, first compound 0.0316 µM
[7] = second compound 0.1 µM, first compound 0.1 µM
[8] = second compound 0.1 µM, first compound 0.316 µM
[9] = second compound 0.1 µM, first compound 1 µM
[10] = second compound 0.1 µM, first compound 3.16 µM
[11] = second compound 0.316 µM, first compound 0.0316 µM
[12] = second compound 0.316 µM, first compound 0.1 µM
[13] = second compound 0.316 µM, first compound 0.316 µM
[14] = second compound 0.316 µM, first compound 1 µM
[15] = second compound 0.316 µM, first compound 3.16 µM
[16] = second compound 1 µM, first compound 0.0316 µM
[17] = second compound 1 µM, first compound 0.1 µM
[18] = second compound 1 µM, first compound 0.316 µM
[19] = second compound 1 µM, first compound 1 µM
[20] = second compound 1 µM, first compound 3.16 µM
[21] = second compound 3.16 µM, first compound 0.0316 µM
[22] = second compound 3.16 µM, first compound 0.1 µM
[23] = second compound 3.16 µM, first compound 0.316 µM
[24] = second compound 3.16 µM, first compound 1 µM
[25] = second compound 3.16 µM, first compound 3.16 µM
[26] = second compound 0.1 µM, first compound 10 µM
[27] = second compound 0.316 µM, first compound 10 µM
[28] = second compound 1 µM, first compound 10 µM
[29] = second compound 3.16 µM, first compound 10 µM
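Further: compound exposure lasted seven days before readout.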
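Wherever viability, T/C is given: 100% = DMSO vehicle control viability.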

SMILES	IC50 (second compound 0.1 µM)	IC50 (second compound 0.316 µM)	IC50 (second compound 1 µM)	IC50 (second compound 3.16 µM)	viability, T/C [6]	viability, T/C [7]	viability, T/C [8]	viability, T/C [9]	viability, T/C [10]	viability, T/C [11]	viability, T/C [12]	viability, T/C [13]	viability, T/C [14]	viability, T/C [15]	viability, T/C [16]	viability, T/C [17]	viability, T/C [18]	viability, T/C [19]	viability, T/C [20]	viability, T/C [21]	also measured
CC(=O)OC12COC1CC(O)C1(C)C(=O)C(O)C3=C(C)C(OC(=O)C(O)C(NC(=O)OC(C)(C)C)c4ccccc4)CC(O)(C(OC(=O)c4ccccc4)C21)C3(C)C (stereo not drawn) + C=CC(=O)N1CCN(c2nc(OCC3CCCN3C)nc3c2CCN(c2cccc4cccc(C)c24)C3)CC1CC#N	> 3160 nM	> 3160 nM	> 3160 nM	> 3160 nM	91.2%	68.5%	69.4%	62.4%	75.1%	64.6%	86.9%	75%	58.7%	70.7%	84.1%	74.4%	73.2%	47.1%	74%	80.1%	IC50 (second compound 0.0316 µM): > 3160 nM; viability, T/C (second compound 0.0316 µM, first compound 0.01 µM): 107%; viability, T/C [1]: 86%; viability, T/C [2]: 92.1%; viability, T/C [3]: 85.1%; viability, T/C [4]: 70%; viability, T/C [5]: 68.5%; viability, T/C (second compound 0.1 µM, first compound 0.01 µM): 83%; viability, T/C (second compound 0.316 µM, first compound 0.01 µM): 67.5%; viability, T/C (second compound 1 µM, first compound 0.01 µM): 54.5%; viability, T/C (second compound 3.16 µM, first compound 0.01 µM): 94.1%; viability, T/C [22]: 98.4%; viability, T/C [23]: 75.1%; viability, T/C [24]: 71.5%; viability, T/C [25]: 75.4%
CC(=O)Nc1cccc(-n2c(=O)n(C3CC3)c(=O)c3c(Nc4ccc(I)cc4F)n(C)c(=O)c(C)c32)c1	–	–	–	–	–	–	–	–	–	–	–	–	–	–	–	–	–	–	–	–	viability, T/C (compound 0.0001 µM): 82.5% [middle of 5 runs]; viability, T/C (compound 0.01 µM): 35.6% [middle of 5 runs]; viability, T/C (compound 0.0316 µM): 20.8% [middle of 5 runs]
Cn1nccc1Nc1nccc(-c2cc3c(s2)C(C)(C)N(CCN2CCOCC2)C3=O)n1 + C=CC(=O)N1CCN(c2nc(OCC3CCCN3C)nc3c2CCN(c2cccc4cccc(C)c24)C3)CC1CC#N	3030 nM	1690 nM	693 nM	< 31.6 nM	76.3%	87.3%	94.7%	60.1%	53.7%	77.7%	74.7%	72%	53.3%	44.8%	71.6%	57.1%	54%	53%	36.7%	47.6%	IC50 (second compound 0.0316 µM): 4030 nM; viability, T/C [1]: 78.1%; viability, T/C [2]: 75.3%; viability, T/C [3]: 82.8%; viability, T/C [4]: 68.4%; viability, T/C [5]: 56.6%; viability, T/C (second compound 0.0316 µM, first compound 10 µM): 28.1%; viability, T/C [26]: 25.3%; viability, T/C [27]: 32.8%; viability, T/C [28]: 27.1%; viability, T/C [22]: 54.6%; viability, T/C [23]: 39.8%; viability, T/C [24]: 30%; viability, T/C [25]: 41.5%; viability, T/C [29]: 17.6%
CCNC(=O)CC1N=C(c2ccc(Cl)cc2)c2cc(OC)ccc2-n2c(C)nnc21 (stereo not drawn) + CNCc1ccccc1-c1csc(C(C)Nc2nc(C)nc3cc(OC)c(OC)cc23)c1	2250 nM	1370 nM	510 nM	73.9 nM	82.5%	109%	87.2%	67.5%	43.8%	81.5%	74.5%	65.6%	52.4%	41.2%	61.1%	59%	54.2%	44%	34.9%	51.9%	IC50 (second compound 10 µM): < 31.6 nM; viability, T/C [26]: 19.8%; viability, T/C [27]: 25.6%; viability, T/C [28]: 24.2%; viability, T/C [22]: 54%; viability, T/C [23]: 37.5%; viability, T/C [24]: 29.1%; viability, T/C [25]: 23.9%; viability, T/C [29]: 9.53%; viability, T/C (second compound 10 µM, first compound 0.0316 µM): 0.36%; viability, T/C (second compound 10 µM, first compound 0.1 µM): 1.18%; viability, T/C (second compound 10 µM, first compound 0.316 µM): 0.49%; viability, T/C (second compound 10 µM, first compound 1 µM): 0.46%; viability, T/C (second compound 10 µM, first compound 3.16 µM): 0.69%; viability, T/C (second compound 10 µM, first compound 10 µM): 0.69%

— PubChem BioAssay AID1963872 (Molecular Pharmacology Branch, DTP, NCI, 2024)
